system: Wnt stimulated TCF transcriptional activity, HEK293-TS 112 TCF reporter cell line; assay: Tankyrase 1 Assay (Example 119): Wnt3A-stimulated TOPbrite TCF luciferase reporter; type: cell-based; conditions: Compounds I-59 to I-144, procedure in Example 119 (0.5 ug/mL Wnt3A, 16 hours); read-out: TNKS1 (IC50)
Method: Inhibition of the Wnt stimulated TCF transcriptional activity by tankyrase inhibitors was determined utilizing a HEK293-TS 112 TCF reporter cell line. A Wnt-responsive luciferase reporter named TOPbrite was constructed by cloning the enhancer element of Super8xTOPFlash containing eight TCF/LEF binding sites into the pGL4.28 vector (Promega) upstream of the minimal promoter element, and selecting for hygromycin B resistance (50 μg/ml). Cells were seeded into 384-well plates in the presence of 0.5 ug/mL of Wnt3A at a density of 20,000 cells per well in 25 ul of F:12 DMEM media supplemented with 10% FBS and 2 mM Glutamax. Cells seeded without the addition of Wnt3A were used as background signal. Compounds of various concentrations were added to cells and incubated at 37 degrees with 5% CO2 for 16 hours. The assay was terminated with the addition of Promega Dual Glo kit per manufacturer's instructions. A ratio of TOPbrite Firefly Luciferase and SV40 Renillla Luciferase was calculated and the background from the neutral wells was subtracted yielding the final normalized measurement of TCF transcriptional activity. Compound IC50s were determined by four-parameter curve fitting using GeneData software.

Row | Compound | IC50 [nM]
1 | Cn1ncc2c(=O)[nH]c(N3CCN(c4c(F)cc(C(O)CO)cc4F)CC3)nc21 (stereo not shown) [Compound I-63, 6-[4-[4-(1 2-dihydroxyethyl)-2 6-difluoro-phenyl]piperazin-1-yl]-1-methyl-5H-pyrazolo[3 4-d]pyrimidin-4-one] | 5.3
2 | Cn1ncc2c(=O)[nH]c(N3CCN([C@H]4CC[C@H](O)CC4)CC3)nc21 [Compound I-120, 6-[4-(4-hydroxycyclohexyl)piperazin-1-yl]-1-methyl-5H-pyrazolo[3 4-d]pyrimidin-4-one] | 153
3 | O=c1[nH]c(N2CCN(c3c(F)cccc3F)CC2)nc2[nH]ncc12 [Compound I-80, 6-[4-(2 6-difluorophenyl)piperazin-1-yl]-1 5-dihydropyrazolo[3 4-d]pyrimidin-4-one] | 14
4 | Cn1ncc2c(=O)[nH]c(N3CCC(Cc4ncccn4)C3)nc21 (stereo not shown) [Compound I-133, 1-methyl-6-[3-(pyrimidin-2-ylmethyl)pyrrolidin-1-yl]-5H-pyrazolo[3 4-d]pyrimidin-4-one] | 337
5 | Cn1ncc2c(=O)[nH]c(N3CCN(C4COC4)CC3)nc21 [Compound I-144, 1-methyl-6-[4-(oxetan-3-yl)piperazin-1-yl]-5H-pyrazolo[3 4-d]pyrimidin-4-one] | 830
6 | Cn1ncc2c(=O)[nH]c(N3CCC(c4ccccn4)CC3)nc21 [Compound I-111, 1-methyl-6-[4-(2-pyridyl)-1-piperidyl]-5H-pyrazolo[3 4-d]pyrimidin-4-one] | 83.8
7 | COCCOc1cc(F)c(N2CCN(c3nc4[nH]ncc4c(=O)[nH]3)CC2)c(F)c1 [Compound I-77, 6-[4-[2 6-difluoro-4-(2-methoxyethoxy)phenyl]piperazin-1-yl]-1 5-dihydropyrazolo[3 4-d]pyrimidin-4-one] | 11.8
8 | COCCOc1cc(F)c(N2CCN(c3nc4c(cnn4CC(O)CO)c(=O)[nH]3)CC2)c(F)c1 (stereo not shown) [Compound I-113, 6-[4-[2 6-difluoro-4-(2-methoxyethoxy)phenyl]piperazin-1-yl]-1-(2 3-dihydroxypropyl)-5H-pyrazolo[3 4-d]pyrimidin-4-one] | 90
9 | Cn1ncc2c(=O)[nH]c(N3CCN(c4c(F)cc(OCCOP(=O)(O)O)cc4F)CC3)nc21 [Compound I-75, 2-[3 5-difluoro-4-[4-(1-methyl-4-oxo-5H-pyrazolo[3 4-d]pyrimidin-6-yl)piperazin-1-yl]phenoxy]ethyl dihydrogen phosphate] | 9.6
10 | Cn1ncc2c(=O)[nH]c(N3CCN(c4c(F)cc(OCC(O)CO)cc4F)CC3)nc21 (stereo not shown) [Compound I-68, 6-[4-[4-(2 3-dihydroxypropoxy)-2 6-difluoro-phenyl]piperazin-1-yl]-1-methyl-5H-pyrazolo[3 4-d]pyrimidin-4-one] | 7
11 | CCS(=O)(=O)c1ccc(-c2nc3c(cnn3C)c(=O)[nH]2)cc1 [Compound I-107, 6-(4-ethylsulfonylphenyl)-1-methyl-5H-pyrazolo[3 4-d]pyrimidin-4-one] | 68.1
12 | Cn1ncc2c(=O)[nH]c(N3CCN(c4c(F)cc(OC(CO)CCl)cc4F)CC3)nc21 (stereo not shown) [Compound I-64, 6-[4-[4-[1-(chloromethyl)-2-hydroxy-ethoxy]-2 6-difluoro-phenyl]piperazin-1-yl]-1-methyl-5H-pyrazolo[3 4-d]pyrimidin-4-one] | 6.4
13 | Cn1ncc2c(=O)[nH]c(N3CCN(c4c(F)cc(OC5CCS(=O)(=O)CC5)cc4F)CC3)nc21 [Compound I-70, 6-[4-[4-(1 1-dioxothian-4-yl)oxy-2 6-difluoro-phenyl]piperazin-1-yl]-1-methyl-5H-pyrazolo[3 4-d]pyrimidin-4-one] | 7.9
14 | Cn1ncc2c(=O)[nH]c(-c3ccc(S(C)(=O)=O)cc3)nc21 [Compound I-102, 1-methyl-6-(4-methylsulfonylphenyl)-5H-pyrazolo[3 4-d]pyrimidin-4-one] | 47.9
15 | Cn1cc(N2CCN(c3nc4c(cnn4C)c(=O)[nH]3)CC2)cn1 [Compound I-105, 1-methyl-6-[4-(1-methylpyrazol-4-yl)piperazin-1-yl]-5H-pyrazolo[3 4-d]pyrimidin-4-one] | 63.9
16 | Cn1nccc1CN1CCN(c2nc3c(cnn3C)c(=O)[nH]2)CC1 [Compound I-132, 1-methyl-6-[4-((2-methylpyrazol-3-yl)methyl]piperazin-1-yl]-5H-pyrazolo[3 4-d]pyrimidin-4-one] | 329
17 | Cc1noc(C2(C)CCN(c3nc4c(cnn4C)c(=O)[nH]3)CC2)n1 [Compound I-91, 1-methyl-6-[4-methyl-4-(3-methyl-1 2 4-oxadiazol-5-yl)-1-piperidyl]-5H-pyrazolo[3 4-d]pyrimidin-4-one] | 24.1

Row | Compound | IC50 [nM]
18 | Cn1ncc2c(=O)[nH]c(N3CCN(C4CCCCC4)CC3)nc21 [Compound I-118, 6-(4-cyclohexylpiperazin-1-yl)-1-methyl-5H-pyrazolo[3 4-d]pyrimidin-4-one] | 122
19 | COCCO[C@H]1CC[C@H](N2CCN(c3nc4c(cnn4C)c(=O)[nH]3)CC2)CC1 [Compound I-121, 6-[4-[4-(2-methoxyethoxy)cyclohexyl]piperazin-1-yl]-1-methyl-5H-pyrazolo[3 4-d]pyrimidin-4-one] | 159
20 | COCCO[C@H]1CC[C@@H](N2CCN(c3nc4c(cnn4C)c(=O)[nH]3)CC2)CC1 [Compound I-136, 6-[4-[4-(2-methoxyethoxy)cyclohexyl]piperazin-1-yl]-1-methyl-5H-pyrazolo[3 4-d]pyrimidin-4-one] | 468
21 | CC(O)c1cc(F)c(N2CCN(c3nc4c(cnn4C)c(=O)[nH]3)CC2)c(F)c1 (stereo not shown) [Compound I-69, 6-[4-[2 6-difluoro-4-(1-hydroxyethyl)phenyl]piperazin-1-yl]-1-methyl-5H-pyrazolo[3 4-d]pyrimidin-4-one] | 7.8
22 | COCCOc1cc(F)c(N2CCN(c3nc4c(cnn4C4CCOCC4)c(=O)[nH]3)CC2)c(F)c1 [Compound I-123, 6-[4-[2 6-difluoro-4-(2-methoxyethoxy)phenyl]piperazin-1-yl]-1-tetrahydropyran-4-yl-5H-pyrazolo[3 4-d]pyrimidin-4-one] | 168
23 | Cn1ncc2c(=O)[nH]c(N3CCC(Cc4ccccn4)CC3)nc21 [Compound I-117, 1-methyl-6-[4-(2-pyridylmethyl)-1-piperidyl]-5H-pyrazolo[3 4-d]pyrimidin-4-one] | 112
24 | COCCOc1cc(F)c(C2(C#N)CCN(c3nc4c(cnn4C)c(=O)[nH]3)CC2)c(F)c1 [Compound I-86, 4-[2 6-difluoro-4-(2-methoxyethoxy)phenyl]-1-(1-methyl-4-oxo-5H-pyrazolo[3 4-d]pyrimidin-6-yl)piperidine-4-carbonitrile] | 18.5
25 | Cn1ncc2c(=O)[nH]c(N3CCN(CC4CCCCC4)CC3)nc21 [Compound I-110, 6-[4-(cyclohexylmethyl)piperazin-1-yl]-1-methyl-5H-pyrazolo[3 4-d]pyrimidin-4-one] | 80.9
26 | Cn1ncc2c(=O)[nH]c(N3CCN([C@H]4CC[C@@H](O)CC4)CC3)nc21 [Compound I-124, 6-[4-(4-hydroxycyclohexyl)piperazin-1-yl]-1-methyl-5H-pyrazolo[3 4-d]pyrimidin-4-one] | 171
27 | Cn1ncc2c(=O)[nH]c(N3CCN(c4c(F)cc(OCCO)cc4F)CC3)nc21 [Compound I-78, 6-[4-[2 6-difluoro-4-(2-hydroxyethoxy)phenyl]piperazin-1-yl]-1-methyl-5H-pyrazolo[3 4-d]pyrimidin-4-one] | 12
28 | COCCOc1cc(F)c(C2(O)CCN(c3nc4c(cnn4C)c(=O)[nH]3)CC2)c(F)c1 [Compound I-83, 6-[4-[2 6-difluoro-4-(2-methoxyethoxy)phenyl]-4-hydroxy-1-piperidyl]-1-methyl-5H-pyrazolo[3 4-d]pyrimidin-4-one] | 15.3
29 | Cn1ncc2c(=O)[nH]c(N3CCC(c4[nH]ncc4S(C)(=O)=O)CC3)nc21 [Compound I-81, 1-methyl-6-[4-(4-methylsulfonyl-1H-pyrazol-5-yl)-1-piperidyl]-5H-pyrazolo[3 4-d]pyrimidin-4-one] | 14.3
30 | Cn1ncc2c(=O)[nH]c(N3CCC(C)(c4ccn(CC(C)(C)O)n4)CC3)nc21 [Compound I-127, 6-[4-[1-(2-hydroxy-2-methyl-propyl)pyrazol-3-yl)-4-methyl-1-piperidyl]-1-methyl-5H-pyrazolo[3 4-d]pyrimidin-4-one] | 223
31 | Cn1ncc2c(=O)[nH]c(N3CCN(c4c(F)cc(OCCN5CCCCC5)cc4F)CC3)nc21 [Compound I-62, 6-{4-[2,6-Difluoro-4-(2-piperidin-1-yl-ethoxy)-phenyl]-piperazin-1-yl}-1-methyl-1,5-dihydro-pyrazolo[3,4-d]pyrimidin-4-one] | 5
32 | Cn1ncc2c(=O)[nH]c(-c3ccc(S(=O)(=O)CC4CCCCC4)cc3)nc21 [Compound I-108, 6-[4-(cyclohexylmethylsulfonyl)phenyl]-1-methyl-5H-pyrazolo[3 4-d]pyrimidin-4-one] | 68.4
33 | Cn1ncc2c(=O)[nH]c(N3CCC(C(=O)N4CCCC4)CC3)nc21 [Compound I-129, 1-methyl-6-[4-(pyrrolidine-1-carbonyl)-1-piperidyl)-5H-pyrazolo[3 4-d]pyrimidin-4-one] | 274
34 | Cn1ncc2c(=O)[nH]c(N3CCC(C)(c4cc[nH]n4)CC3)nc21 [Compound I-82, 1-methyl-6-[4-methyl-4-(1H-pyrazol-3-yl)-1-piperidyl]-5H-pyrazolo[3 4-d]pyrimidin-4-one] | 15.1
